From patent US20260325533A1, “CDK INHIBITOR COMPOUNDS” (ALEKSIA THERAPEUTICS, INC., priority 2023, published 2026) come the findings set out here.

Read-outs that look alike come from different tables or passages of the source.

Holding throughout (format): biochemical
Test [1] concerns the target CDK4/CCND3 (Homo sapiens, UniProt P11802). The test is described as follows: CDK4 homogeneous time-resolved fluorescence (HTRF) kinase assay. The note with it: CDK4/CCND. In a few lines:
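Inhibition of CDK4/CCND3 (1.5 nM) was measured at high ATP (1 mM) using 50 nM ULight-labelled 4E-BP1 Thr37/46 peptide; detection used 2 nM europium anti-phospho antibody after EDTA quench. IC50 values came from 11-point half-log titrations typically starting at 10 μM.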

The target of test [2] is CDK6/CCND1 (Homo sapiens, UniProt Q00534). The test is described as follows: CDK6 homogeneous time-resolved fluorescence (HTRF) kinase assay. To be noted: CDK6/CCND. In a few lines: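 1 nM enzyme, 1 mM ATP, 50 nM ULight-4E-BP1 (Thr37/46) peptide, 1% DMSO; 20 min compound preincubation, 60 min reaction, 23 °C. EDTA stop, 2 nM Eu-anti-phospho-4E-BP1 antibody 60 min. TR-FRET 665 nm (or 665/615 ratio); IC50 from 11-point half-log titration, top 10 μM.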
CDK6/CCND1, sequence (Q00534 whole entry): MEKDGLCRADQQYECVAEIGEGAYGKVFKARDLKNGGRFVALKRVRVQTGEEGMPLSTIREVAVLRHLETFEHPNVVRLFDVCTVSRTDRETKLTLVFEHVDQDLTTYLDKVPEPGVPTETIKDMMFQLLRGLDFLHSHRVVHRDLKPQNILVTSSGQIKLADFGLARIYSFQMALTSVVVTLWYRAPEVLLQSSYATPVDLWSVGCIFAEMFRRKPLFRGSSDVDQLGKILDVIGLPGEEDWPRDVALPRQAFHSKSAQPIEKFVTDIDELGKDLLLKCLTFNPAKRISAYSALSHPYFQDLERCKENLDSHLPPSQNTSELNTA
CDK6/CCND1, sequence (P24385 whole entry partner): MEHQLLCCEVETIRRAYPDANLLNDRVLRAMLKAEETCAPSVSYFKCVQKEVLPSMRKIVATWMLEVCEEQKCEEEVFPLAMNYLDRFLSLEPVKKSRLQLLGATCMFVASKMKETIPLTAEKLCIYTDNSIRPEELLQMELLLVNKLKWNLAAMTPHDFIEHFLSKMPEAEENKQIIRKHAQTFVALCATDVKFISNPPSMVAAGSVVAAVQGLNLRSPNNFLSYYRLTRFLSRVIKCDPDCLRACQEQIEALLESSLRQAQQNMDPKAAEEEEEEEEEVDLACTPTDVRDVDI

In test [3] the target is CDK1/CCNB1 (Homo sapiens, UniProt P06493). As to the kind of experiment: CDK1 homogeneous time-resolved fluorescence (HTRF) kinase assay. To be noted: CDK1/CCNB. Put shortly:
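High-ATP (1 mM) HTRF assay with 0.5 nM CDK1/cyclin B1 and 50 nM ULight-4E-BP1 (Thr37/46) substrate, 60 min at 23 °C after 20-min compound preincubation. IC50 values come from dose-response curves.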

For test [4], the target named is CDK2/CCNE1 (Homo sapiens, UniProt P24941). As to the kind of experiment: CDK2 homogeneous time-resolved fluorescence (HTRF) kinase assay. To be noted: CDK2/CCNE. Put shortly: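 CDK2/CCNE1 (3 nM) preincubated 20 min at 23 °C with compound, then reacted 60 min at 23 °C with 1 mM ATP and 50 nM ULight-4E-BP1 (Thr37/46) peptide. Stopped with EDTA, phospho-peptide detected by Eu-anti-phospho antibody (665 nm or 665/615 ratio). IC50 from 11-point half-log titrations typically starting at 10 μM.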

Setting [5] is: x = IC50 >250 nM, read-out: CDK4/CCND IC50 (>250 nM column).
Setting [6] is: x = IC50 >250 nM, read-out: CDK6/CCND IC50 (>250 nM column).
Where [7] appears, read: x = IC50 >250 nM, read-out: CDK1/CCNB IC50 (>250 nM column).
Setting [8] is: x = IC50 25-250 nM, read-out: CDK2/CCNE IC50 (25-250 nM).
The mark [9] stands for this setting: x = IC50 <25 nM, read-out: CDK2/CCNE IC50 (<25 nM).
Setting [10] is: x = IC50 >250 nM, read-out: CDK2/CCNE IC50 (>250 nM column).

CDK1/CCNB1, sequence (P06493 whole entry): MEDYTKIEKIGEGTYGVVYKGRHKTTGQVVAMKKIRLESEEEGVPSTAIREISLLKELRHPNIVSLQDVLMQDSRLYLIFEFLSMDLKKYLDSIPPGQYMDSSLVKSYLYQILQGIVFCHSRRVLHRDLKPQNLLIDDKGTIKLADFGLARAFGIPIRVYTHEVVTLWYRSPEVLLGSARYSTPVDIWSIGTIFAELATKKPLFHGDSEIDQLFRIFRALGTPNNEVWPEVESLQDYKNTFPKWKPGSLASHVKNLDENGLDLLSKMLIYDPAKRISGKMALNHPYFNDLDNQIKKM
CDK1/CCNB1, sequence (P14635 whole entry partner): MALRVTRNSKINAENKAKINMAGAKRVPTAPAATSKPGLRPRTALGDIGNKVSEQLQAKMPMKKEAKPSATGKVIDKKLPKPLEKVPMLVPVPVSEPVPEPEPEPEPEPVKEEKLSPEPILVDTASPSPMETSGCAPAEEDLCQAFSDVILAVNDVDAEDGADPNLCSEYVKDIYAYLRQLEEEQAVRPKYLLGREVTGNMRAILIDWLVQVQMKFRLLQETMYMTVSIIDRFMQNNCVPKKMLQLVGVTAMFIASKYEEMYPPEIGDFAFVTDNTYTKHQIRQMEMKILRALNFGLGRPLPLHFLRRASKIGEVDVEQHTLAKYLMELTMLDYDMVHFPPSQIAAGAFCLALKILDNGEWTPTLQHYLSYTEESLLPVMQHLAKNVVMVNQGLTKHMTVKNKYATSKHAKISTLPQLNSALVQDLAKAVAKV
CDK4/CCND3, sequence (P11802 whole entry): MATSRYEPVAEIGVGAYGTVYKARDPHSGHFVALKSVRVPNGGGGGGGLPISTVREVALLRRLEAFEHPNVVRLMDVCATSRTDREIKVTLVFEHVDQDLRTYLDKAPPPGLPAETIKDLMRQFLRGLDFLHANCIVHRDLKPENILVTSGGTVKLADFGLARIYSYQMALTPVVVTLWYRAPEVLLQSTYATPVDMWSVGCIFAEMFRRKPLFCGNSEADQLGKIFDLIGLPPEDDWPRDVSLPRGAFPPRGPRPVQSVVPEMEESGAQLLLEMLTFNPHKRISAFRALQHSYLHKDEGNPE
CDK4/CCND3, sequence (P30281 whole entry partner): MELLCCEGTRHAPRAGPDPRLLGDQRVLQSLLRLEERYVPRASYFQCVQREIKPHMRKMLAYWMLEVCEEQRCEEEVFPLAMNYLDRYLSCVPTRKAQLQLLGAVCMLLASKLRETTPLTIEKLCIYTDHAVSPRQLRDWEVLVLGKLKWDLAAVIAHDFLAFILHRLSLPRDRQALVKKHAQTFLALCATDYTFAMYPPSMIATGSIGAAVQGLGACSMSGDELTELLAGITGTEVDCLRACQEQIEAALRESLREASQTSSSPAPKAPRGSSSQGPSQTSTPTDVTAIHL

Turning to `CS(=O)(=O)c1ccc(Nc2cc3c(C#Cc4n[nH]c5c(F)cccc45)nccc3cn2)cc1` [Ex 503, 5-((7-fluoro-1H-indazol-3-yl)ethynyl)-N-(4-(methylsulfonyl)phenyl)-2,6-naphthyridin-3-amine], the IC50 in test [1] (setting [5]) was greater than 250 nM; in test [2] (setting [6]) it was greater than 250 nM; in test [3] (setting [7]), greater than 250 nM; in test [4] (setting [8]), 25 to 250 nM.

For the molecule `CC(C)(C#Cc1nccc2cnc(Nc3ccc(S(C)(=O)=O)cc3)cc12)CO` [Ex 504, 2,2-dimethyl-4-(7-((4-(methylsulfonyl)phenyl)amino)-2,6-naphthyridin-1-yl)but-3-yn-1-ol], the IC50 in test [1] (x = IC50 25-250 nM, read-out: CDK4/CCND IC50 (25-250 nM)) is 25 to 250 nM; in test [2] (x = IC50 25-250 nM, read-out: CDK6/CCND IC50 (25-250 nM)), 25 to 250 nM; in test [3] (x = IC50 25-250 nM, read-out: CDK1/CCNB IC50 (25-250 nM)) it was 25 to 250 nM; in test [4] (setting [9]) it was less than 25 nM.

Regarding `CC(=O)Nc1ncc(C#Cc2nccc3cnc(Nc4ccc(S(C)(=O)=O)cc4)cc23)s1` [Ex 505, N-(5-((7-((4-(methylsulfonyl)phenyl)amino)-2,6-naphthyridin-1-yl)ethynyl)thiazol-2-yl)acetamide], the IC50 in test [1] (setting [5]) is greater than 250 nM; in test [2] (setting [6]), greater than 250 nM; in test [3] (setting [7]), greater than 250 nM; in test [4] (setting [8]) it was 25 to 250 nM.

Regarding `CS(=O)(=O)c1ccc(Nc2cc3c(C#Cc4ccc(N5CCCC(Cl)(Cl)C5=O)cc4)nccc3cn2)cc1` [Ex 506, 3,3-dichloro-1-(4-((7-((4-(methylsulfonyl)phenyl)amino)-2,6-naphthyridin-1-yl)ethynyl)phenyl)piperidin-2-one], the IC50 in test [1] (setting [5]), in test [2] (setting [6]), in test [3] (setting [7]) and in test [4] (setting [10]) was greater than 250 nM in each case.

For the molecule `Cc1cnc(C#Cc2nccc3cnc(Nc4ccc(S(C)(=O)=O)cc4)cc23)cn1` [Ex 507, 5-((5-methylpyrazin-2-yl)ethynyl)-N-(4-(methylsulfonyl)phenyl)-2,6-naphthyridin-3-amine], the IC50 in test [1] (setting [5]), in test [2] (setting [6]), in test [3] (setting [7]) and in test [4] (setting [10]) was greater than 250 nM in each case.

`CS(=O)(=O)c1ccc(Nc2cc3c(C#Cc4ccnc(F)c4)nccc3cn2)cc1` [Ex 508, 5-((2-fluoropyridin-4-yl)ethynyl)-N-(4-(methylsulfonyl)phenyl)-2,6-naphthyridin-3-amine]: the IC50 in test [1] (setting [5]) is greater than 250 nM; in test [2] (setting [6]), greater than 250 nM; in test [3] (setting [7]), greater than 250 nM; in test [4] (setting [8]) it was 25 to 250 nM.

As to `Cc1cnc(F)cc1C#Cc1nccc2cnc(Nc3ccc(S(C)(=O)=O)cc3)cc12` [Ex 509, 5-((2-fluoro-5-methylpyridin-4-yl)ethynyl)-N-(4-(methylsulfonyl)phenyl)-2,6-naphthyridin-3-amine], the IC50 is greater than 250 nM in test [1] (setting [5]), greater than 250 nM in test [2] (setting [6]), greater than 250 nM in test [3] (setting [7]) and 25 to 250 nM in test [4] (setting [8]).

In the case of `COc1ccc(C#Cc2nccc3cnc(Nc4ccc(S(C)(=O)=O)cc4)cc23)nn1` [Ex 514, 5-((6-methoxypyridazin-3-yl)ethynyl)-N-(4-(methylsulfonyl)phenyl)-2,6-naphthyridin-3-amine], the IC50 in test [1] (setting [5]), in test [2] (setting [6]), in test [3] (setting [7]) and in test [4] (setting [10]) was greater than 250 nM in each case.

Take `Cn1cc(C#Cc2nccc3cnc(Nc4ccc(S(C)(=O)=O)cc4)cc23)ncc1=O` [Ex 515, 1-methyl-5-((7-((4-(methylsulfonyl)phenyl)amino)-2,6-naphthyridin-1-yl)ethynyl)pyrazin-2(1H)-one]: the IC50 in test [1] (setting [5]) was greater than 250 nM; in test [2] (setting [6]), greater than 250 nM; in test [3] (setting [7]), greater than 250 nM; in test [4] (setting [8]), 25 to 250 nM.

Regarding `CS(=O)(=O)c1ccc(Nc2cc3c(C#Cc4nccc5[nH]ccc45)nccc3cn2)cc1` [Ex 516, 5-((1H-pyrrolo[3,2-c]pyridin-4-yl)ethynyl)-N-(4-(methylsulfonyl)phenyl)-2,6-naphthyridin-3-amine], the IC50 in test [1] (setting [5]), in test [2] (setting [6]), in test [3] (setting [7]) and in test [4] (setting [10]) was greater than 250 nM each time.

In the case of `CS(=O)(=O)c1ccc(Nc2cc3c(C#Cc4ccc(C5CC5)nc4)nccc3cn2)cc1` [Ex 517, 5-((6-cyclopropylpyridin-3-yl)ethynyl)-N-(4-(methylsulfonyl)phenyl)-2,6-naphthyridin-3-amine], the IC50 is greater than 250 nM in test [1] (setting [5]), greater than 250 nM in test [2] (setting [6]), greater than 250 nM in test [3] (setting [7]) and 25 to 250 nM in test [4] (setting [8]).

Turning to `CS(=O)(=O)c1ccc(Nc2cc3c(C#Cc4ccc5oc(=O)[nH]c5c4)nccc3cn2)cc1` [Ex 518, 5-((7-((4-(methylsulfonyl)phenyl)amino)-2,6-naphthyridin-1-yl)ethynyl)benzo[d]oxazol-2(3H)-one], the IC50 is greater than 250 nM in test [1] (setting [5]), greater than 250 nM in test [2] (setting [6]), greater than 250 nM in test [3] (setting [7]) and less than 25 nM in test [4] (setting [9]).

Regarding `CS(=O)(=O)c1ccc(Nc2cc3c(C#Cc4c[nH]c5nc(Cl)ncc45)nccc3cn2)cc1` [Ex 520, 5-((2-chloro-7H-pyrrolo[2,3-d]pyrimidin-5-yl)ethynyl)-N-(4-(methylsulfonyl)phenyl)-2,6-naphthyridin-3-amine], the IC50 is greater than 250 nM in test [1] (setting [5]), greater than 250 nM in test [2] (setting [6]), greater than 250 nM in test [3] (setting [7]) and 25 to 250 nM in test [4] (setting [8]).

Turning to `COC(=O)c1ccc(C#Cc2nccc3cnc(Nc4ccc(S(C)(=O)=O)cc4)cc23)cn1` [Ex 521, methyl 5-((7-((4-(methylsulfonyl)phenyl)amino)-2,6-naphthyridin-1-yl)ethynyl)picolinate], the IC50 is greater than 250 nM in test [1] (setting [5]), greater than 250 nM in test [2] (setting [6]), greater than 250 nM in test [3] (setting [7]) and 25 to 250 nM in test [4] (setting [8]).

On to `CS(=O)(=O)c1ccc(Nc2cc3c(C#Cc4c[nH]c5ncccc45)nccc3cn2)cc1` [Ex 522, 5-((1H-pyrrolo[2,3-b]pyridin-3-yl)ethynyl)-N-(4-(methylsulfonyl)phenyl)-2,6-naphthyridin-3-amine], for which the IC50 was greater than 250 nM in test [1] (setting [5]), greater than 250 nM in test [2] (setting [6]), greater than 250 nM in test [3] (setting [7]) and 25 to 250 nM in test [4] (setting [8]).

As to `CS(=O)(=O)c1ccc(Nc2cc3c(C#Cc4cnc(C#N)nc4)nccc3cn2)cc1` [Ex 523, 5-((7-((4-(methylsulfonyl)phenyl)amino)-2,6-naphthyridin-1-yl)ethynyl)pyrimidine-2-carbonitrile], the IC50 in test [1] (setting [5]), in test [2] (setting [6]), in test [3] (setting [7]) and in test [4] (setting [10]) was greater than 250 nM throughout.

Turning to `COc1ccnc(C#Cc2nccc3cnc(Nc4ccc(S(C)(=O)=O)cc4)cc23)c1N` [Ex 525, 5-((3-amino-4-methoxypyridin-2-yl)ethynyl)-N-(4-(methylsulfonyl)phenyl)-2,6-naphthyridin-3-amine], the IC50 in test [1] (setting [5]) is greater than 250 nM; in test [2] (setting [6]) it was greater than 250 nM; in test [3] (setting [7]), greater than 250 nM; in test [4] (setting [8]) it was 25 to 250 nM.

On to `COc1ccc(C#Cc2nccc3cnc(Nc4ccc(S(C)(=O)=O)cc4)cc23)c(C)c1` [Ex 527, 5-((4-methoxy-2-methylphenyl)ethynyl)-N-(4-(methylsulfonyl)phenyl)-2,6-naphthyridin-3-amine], for which the IC50 in test [1] (setting [5]) was greater than 250 nM; in test [2] (setting [6]), greater than 250 nM; in test [3] (setting [7]), greater than 250 nM; in test [4] (setting [8]), 25 to 250 nM.
